According to the CheMixHub drug solubility set:

Test: xn = mol fraction of the nth substance listed, in the solute-free solvent

Cc1cc(Cl)cc(C(=O)O)c1N + CC(C)=O + CO
solubility (g/100 g solution)
Details	278.15 K	283.15 K	288.15 K	293.15 K	298.15 K	303.15 K	308.15 K	313.15 K	318.15 K	323.15 K
x2 = 0.0885	1.19	1.38	1.68	1.99	2.4	2.86	3.39	4.09	4.87	5.8
x2 = 0.1908	1.63	1.86	2.21	2.59	3.05	3.58	4.22	5.04	5.96	7.04
x2 = 0.3105	2.08	2.33	2.75	3.19	3.7	4.29	5.04	5.98	7.04	8.27
x2 = 0.4522	2.52	2.8	3.28	3.79	4.35	5.01	5.85	6.92	8.12	9.48
x2 = 0.6228	2.96	3.27	3.81	4.39	4.99	5.71	6.66	7.84	9.18	10.7
x2 = 0.832	3.4	3.74	4.34	4.98	5.64	6.42	7.47	8.77	10.2	11.9

O=C(O)c1ccc(-n2nc(-c3ccccc3O)nc2-c2ccccc2O)cc1 + CC(O)CO + CC#N
298.15 K
Details	solubility (g/100 g solution)
x2 = 0.05655	2.43
x2 = 0.1188	4.43
x2 = 0.1878	6.62
x2 = 0.2645	8.48
x2 = 0.3504	9.81
x2 = 0.4473	10.7
x2 = 0.5573	11.3
x2 = 0.6833	11.4
x2 = 0.8292	11

CC(C)Oc1ccc2c(=O)c(-c3ccccc3)coc2c1 + CC(=O)N(C)C + CCO
solubility (g/100 g solution)
Details	278.15 K	283.15 K	288.15 K	293.15 K	298.15 K	303.15 K	308.15 K	313.15 K	318.15 K	323.15 K
x2 = 0.1146	1.53	1.91	2.45	3.3	4.13	5.36	7.01	8.71	11	14
x2 = 0.2681	2.21	2.72	3.46	4.21	5.26	6.49	8.02	9.92	12.2	15.1
x2 = 0.4379	4.02	4.85	5.82	7.08	8.67	10.2	12.4	14.5	17.7	21.8
x2 = 0.6771	6.41	8.04	9.6	11.1	13	15.4	18	21.2	25	28.9

O=CC(O)C(O)C(O)CO (centres undefined) + CCO + ClCCl
solubility (g/100 g solution)
Details	x2 = 0.1	x2 = 0.2	x2 = 0.3	x2 = 0.4	x2 = 0.5	x2 = 0.6	x2 = 0.7	x2 = 0.8	x2 = 0.9
283.15 K	0.222	0.374	0.669	1.02	1.41	1.64	1.88	2.05	2.24
288.15 K	0.227	0.458	0.813	1.26	1.81	2.12	2.32	2.57	2.85
293.15 K	0.254	0.522	1.1	1.55	2.15	2.55	2.96	3.23	3.55
298.15 K	0.264	0.645	1.28	1.9	2.77	3.18	3.69	4.2	4.58
303.15 K	0.325	0.776	1.43	2.28	3.27	4.09	4.72	5.4	5.99

Cc1nc(C)c(C)nc1C + CCCCO + CC#N
solubility (g/100 g solution)
Details	273.15 K	278.15 K	283.15 K	288.15 K	293.15 K	298.15 K	303.15 K	308.15 K	313.15 K
x2 = 0.1	14	16.4	19.4	21.5	27.1	29.5	36.1	39.3	44.2
x2 = 0.2	18.3	21	23.4	27.1	31.6	34.6	39.8	43.8	48.2
x2 = 0.3	21.2	24.6	26.9	30.9	35.3	38.2	42.8	46.6	50.5
x2 = 0.4	22.8	25.9	28.7	33	37.8	40.3	44.8	48.5	52.8
x2 = 0.5	23.7	26.6	30.4	34	39.2	41.5	45.7	49.3	53.6
x2 = 0.6	24.5	26.1	30.6	34.2	39.4	41.6	45.7	50	53.9
x2 = 0.7	24.3	25.7	30.1	33.6	39.3	41.5	44.8	50.1	53.6
x2 = 0.8	23.5	24.9	29.4	33	38.4	41	43.8	49.6	53
x2 = 0.9	21.8	23.6	27.9	30.6	36.3	39.2	41.8	47.9	51.3

CC(C)Oc1ccc2c(=O)c(-c3ccccc3)coc2c1 + CN1CCCC1=O + CCO
solubility (g/100 g solution)
Details	278.15 K	283.15 K	288.15 K	293.15 K	298.15 K	303.15 K	308.15 K	313.15 K	318.15 K	323.15 K
x2 = 0.1038	1.5	1.87	2.26	2.85	3.5	4.39	5.46	6.91	8.81	10.8
x2 = 0.2359	2.85	3.39	4.07	4.91	6.03	7.33	8.92	11	13.1	15.9
x2 = 0.41	5.57	6.67	7.63	9.21	10.9	12.9	15.3	17.8	21	24.9
x2 = 0.6471	9.68	11	12.7	14.6	16.8	19.3	22.1	25.1	28.4	32.1

Cc1cc(Cl)cc(C(=O)O)c1N + CC(C)=O + CC#N
solubility (g/100 g solution)
Details	278.15 K	283.15 K	288.15 K	293.15 K	298.15 K	303.15 K	308.15 K	313.15 K	318.15 K	323.15 K
x2 = 0.1114	1.03	1.1	1.25	1.42	1.6	1.82	2.12	2.5	2.98	3.61
x2 = 0.2335	1.51	1.63	1.87	2.13	2.41	2.74	3.2	3.76	4.46	5.3
x2 = 0.3677	1.98	2.16	2.48	2.84	3.21	3.65	4.26	5	5.89	6.95
x2 = 0.516	2.46	2.68	3.09	3.54	4	4.55	5.3	6.22	7.3	8.55
x2 = 0.6807	2.92	3.19	3.69	4.24	4.78	5.44	6.32	7.42	8.69	10.1
x2 = 0.8648	3.39	3.71	4.29	4.92	5.55	6.31	7.34	8.61	10.1	11.7

Cl.NC(C=O)C(O)C(O)C(O)CO (centres undefined) + O + CCO
solubility (g/100 g solution)
Details	283.15 K	288.15 K	293.15 K	298.15 K	303.15 K	308.15 K	313.15 K	318.15 K	323.15 K
x2 = 0.4	0.614	0.658	0.736	0.832	0.899	0.944	1.08	1.18	1.27
x2 = 0.5	1.17	1.37	1.55	1.68	1.79	2.1	2.32	2.52	2.83
x2 = 0.6	2.21	2.56	2.9	3.34	3.6	3.91	4.59	4.86	5.43
x2 = 0.7	3.86	4.61	5.18	5.66	6.46	7.67	8.39	9.2	10.5
x2 = 0.8	6.88	7.72	8.59	9.69	10.7	11.8	13.1	14.6	16.1
x2 = 0.9	12.3	13.1	14.5	16.1	17.4	19	20.6	22.3	23.9
